According to patent US9540392B2, “Thienopyrimidines” (BAYER PHARMA AKTIENGESELLSCHAFT, priority 2012, dated 2017):

Molecular target: T1, human full-length MKNK1 (Homo sapiens, UniProt Q9BUB5, T385D)
T1 construct: GST (N); purchased Carna Biosciences 02-145; host or cells: insect cells (baculovirus expression system)
Experiment: MKNK1 kinase high ATP assay (TR-FRET)
Assay type: biochemical
Conditions: 2 mM ATP, after preincubation with MKNK1; read-out: MKNK1 IC50 (MKNK1 high ATP)
Outline: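 Compound was preincubated 15 min at 22° C. with MKNK1 in 50 mM HEPES pH 7.5, 5 mM MgCl2, 1.0 mM DTT, then the reaction ran 30 min at 22° C. with 2 mM ATP and 0.06 μM biotinylated peptide (final).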

T1 sequence (Q9BUB5 1-424 isoform Q9BUB5-2 T344D): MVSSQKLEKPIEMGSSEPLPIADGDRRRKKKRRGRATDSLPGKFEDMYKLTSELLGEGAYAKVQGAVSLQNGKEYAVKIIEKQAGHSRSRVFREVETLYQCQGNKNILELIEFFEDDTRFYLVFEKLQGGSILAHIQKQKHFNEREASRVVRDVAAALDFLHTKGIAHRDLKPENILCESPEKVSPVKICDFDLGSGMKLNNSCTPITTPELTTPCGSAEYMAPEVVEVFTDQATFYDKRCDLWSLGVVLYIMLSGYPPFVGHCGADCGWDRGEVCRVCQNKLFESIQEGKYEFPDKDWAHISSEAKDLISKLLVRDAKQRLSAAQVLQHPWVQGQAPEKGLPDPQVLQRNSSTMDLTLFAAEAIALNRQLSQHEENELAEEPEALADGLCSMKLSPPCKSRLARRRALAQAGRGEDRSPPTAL

Row | IC50 [nM] | Structure (SMILES)
1 | 2.2 | CN(C)C(=O)C1CCc2c(sc3ncnc(Nc4cc5cn[nH]c5cc4OCCCCl)c23)C1 (racemic) [Example 267, (RS)-4-{[6-(3-Chloropropoxy)-1H-indazol-5-yl]amino}-N,N-dimethyl-5,6,7,8-tetrahydro[1]benzothieno[2,3-d]pyrimidine-7-carboxamide]
2 | 0.5 | CC(C)Oc1cc2[nH]ncc2cc1Nc1ncnc2sc3c(c12)CCC(C(=O)N(C)CC(F)F)C3 (racemic) [Example 216, (RS)—N-(2,2-Difluoroethyl)-N-methyl-4-{[6-(propan-2-yloxy)-1H-indazol-5-yl]amino}-5,6,7,8-tetrahydro[1]benzothieno[2,3-d]pyrimidine-7-carboxamide]
3 | 3 | COc1ccc(CCNC(=O)C2CCc3c(sc4ncnc(Nc5ccc6[nH]ncc6c5)c34)C2)cc1 (centres unmarked) [Example 25, 4-(1H-Indazol-5-ylamino)-N-[2-(4-methoxyphenyl)ethyl]-5,6,7,8-tetrahydro[1] benzothieno [2,3-d]pyrimidine-7-carboxamide]
4 | 15.6 | CN(Cc1ccn(C)n1)C(=O)C1CCc2c(sc3ncnc(Nc4ccc5[nH]ncc5c4)c23)C1 (racemic) [Example 137, (RS)-4-(1H-indazol-5-ylamino)-N-methyl-N-[(1-methyl-1H-pyrazol-3-yl)methyl]-5,6,7,8-tetrahydro[1]benzothieno[2,3-d]pyrimidine-7-carboxamide]
5 | 14.5 | O=C(C1CCc2c(sc3ncnc(Nc4ccc5[nH]ncc5c4)c23)C1)N1CCN(c2ccccc2)CC1 (racemic) [Example 106, (RS)-[4-(1H-indazol-5-ylamino)-5,6,7,8-tetrahydro[1]benzothieno[2,3-d]pyrimidin-7-yl](4-phenylpiperazin-1-yl)methanone]
6 | 15.1 | O=C(C1CCc2c(sc3ncnc(Nc4ccc5[nH]ncc5c4)c23)C1)N1CCN2CCCCC2C1 (racemic) [Example 192, (RS)-[4-(1H-indazol-5-ylamino)-5,6,7,8-tetrahydro[1]benzothieno[2,3-d]pyrimidin-7-yl](octahydro-2H-pyrido[1,2-a]pyrazin-2-yl)methanone]
7 | 22.5 | CNC(=O)CN1CCN(C(=O)C2CCc3c(sc4ncnc(Nc5ccc6[nH]ncc6c5)c34)C2)CC1 (racemic) [Example 164, (RS)-2-(4-{[4-(1H-indazol-5-ylamino)-5,6,7,8-tetrahydro[1]benzothieno[2,3-d]pyrimidin-7-yl]carbonyl}piperazin-1-yl)-N-methylacetamide]
8 | 12.4 | O=C(C1CCc2c(sc3ncnc(Nc4ccc5[nH]ncc5c4)c23)C1)N1CC=CC1 (racemic) [Example 184, (RS)-2,5-dihydro-1H-pyrrol-1-yl[4-(1H-indazol-5-ylamino)-5,6,7,8-tetrahydro[1]benzothieno[2,3-d]pyrimidin-7-yl]methanone]
9 | 0.2 | COc1cc2[nH]ncc2cc1Nc1ncnc2sc3c(c12)CCC(C(=O)N(C)C1CC1)C3 (racemic) [Example 181, (RS)—N—Cyclopropyl-4-[(6-methoxy-1H-indazol-5-yl)amino]-N-methyl-5,6,7,8-tetrahydro[1]benzothieno[2,3-d]pyrimidine-7-carboxamide]
10 | 0.6 | CC(C)Oc1cc2[nH]ncc2cc1Nc1ncnc2sc3c(c12)CCC(C(=O)N(C)CC1CC1)C3 (racemic) [Example 220, (RS)—N-(Cyclopropylmethyl)-N-methyl-4-{[6-(propan-2-yloxy)-1H-indazol-5-yl]amino}-5,6,7,8-tetrahydro[1]benzothieno[2,3-d]pyrimidine-7-carboxamide]
11 | 20.6 | O=C(C1CCc2c(sc3ncnc(Nc4ccc5[nH]ncc5c4)c23)C1)N1CCN(c2ccccn2)CC1 (racemic) [Example 87, (RS)-[4-(1H-indazol-5-ylamino)-5,6,7,8-tetrahydro[1]benzothieno[2,3-d]pyrimidin-7-yl][4-(pyridin-2-yl)piperazin-1-yl]methanone]
12 | 14.9 | O=C(C1CCc2c(sc3ncnc(Nc4ccc5[nH]ncc5c4)c23)C1)N1CCN(Cc2ccccc2)CC1 (racemic) [Example 86, (RS)-(4-benzylpiperazin-1-yl)[4-(1H-indazol-5-ylamino)-5,6,7,8-tetrahydro[1]benzothieno[2,3-d]pyrimidin-7-yl]methanone]
13 | 132 | Cc1ccccc1N1CCN(C(=O)C2CCc3c(sc4ncnc(Nc5ccc6[nH]ncc6c5)c34)C2)CC1 (racemic) [Example 110, (R)S-[4-(1H-indazol-5-ylamino)-5,6,7,8-tetrahydro[1]benzothieno[2,3-d]pyrimidin-7-yl][4-(2-methylphenyl)piperazin-1-yl]methanone]
14 | 7.5 | O=C(Nc1cccnc1)C1CCc2c(sc3ncnc(Nc4ccc5[nH]ncc5c4)c23)C1 (racemic) [Example 100, (RS)-4-(1H-indazol-5-ylamino)-N-(pyridin-3-yl)-5,6,7,8-tetrahydro[1]benzothieno[2,3-d]pyrimidine-7-carboxamide]
15 | 8.9 | COC(=O)C1CCc2c(sc3ncnc(Nc4ccc5[nH]ncc5c4)c23)C1 (racemic) [Example 73, (RS)-Methyl 4-(1H-indazol-5-ylamino)-5,6,7,8-tetrahydro[1]benzothieno[2,3-d]pyrimidine-7-carboxylate]
16 | 21.7 | CN1CCN(CCNC(=O)C2CCc3c(sc4ncnc(Nc5ccc6[nH]ncc6c5)c34)C2)CC1 (racemic) [Example 144, (RS)-4-(1H-indazol-5-ylamino)-N-[2-(4-methylpiperazin-1-yl)ethyl]-5,6,7,8-tetrahydro[1]benzothieno[2,3-d]pyrimidine-7-carboxamide]
17 | 1.5 | CCOc1cc2[nH]ncc2cc1Nc1ncnc2sc3c(c12)CCC(C(=O)N(C)C(C)(C)C)C3 (racemic) [Example 238, (RS)—N-tert-Butyl-4-[(6-ethoxy-1H-indazol-5-yl)amino]-N-methyl-5,6,7,8-tetrahydro[1]benzothieno[2,3-d]pyrimidine-7-carboxamide]
18 | 3 | CN(Cc1ccncc1)C(=O)C1CCc2c(sc3ncnc(Nc4ccc5[nH]ncc5c4)c23)C1 (centres unmarked) [Example 26, 4-(1H-Indazol-5-ylamino)-N-methyl-N-(pyridin-4-ylmethyl)-5,6,7,8-tetrahydro[1] benzothieno [2,3-d]pyrimidine-7-carboxamide]
19 | 12 | O=C(C1CCc2c(sc3ncnc(Nc4ccc5[nH]ncc5c4)c23)C1)N1CCC(O)(C(F)(F)F)CC1 (racemic) [Example 194, (RS)-[4-hydroxy-4-(trifluoromethyl)piperidin-1-yl][4-(1H-indazol-5-ylamino)-5,6,7,8-tetrahydro[1]benzothieno[2,3-d]pyrimidin-7-yl]methanone]
20 | 4 | CC(C)NC(=O)C1CCc2c(sc3ncnc(Nc4ccc5[nH]ncc5c4)c23)C1 (centres unmarked) [Example 6, 4-(1H-Indazol-5-ylamino)-N-isopropyl-5,6,7,8-tetrahydro[1]benzothieno[2,3-d]pyrimidine-7-carboxamide]
21 | 4.9 | CN(Cc1cccc(F)c1)C(=O)C1CCc2c(sc3ncnc(Nc4ccc5[nH]ncc5c4)c23)C1 (racemic) [Example 145, (RS)-N-(3-fluorobenzyl)-4-(1H-indazol-5-ylamino)-N-methyl-5,6,7,8-tetrahydro[1]benzothieno[2,3-d]pyrimidine-7-carboxamide]
22 | 0.6 | CCOc1cc2[nH]ncc2cc1Nc1ncnc2sc3c(c12)CCC(C(=O)N(C)CC(O)CO)C3 (racemic) [Example 257, (7RS)—N-[(2RS)-2,3-Dihydroxypropyl]-4-[(6-ethoxy-1H-indazol-5-yl)amino]-N-methyl-5,6,7,8-tetrahydro[1]benzothieno[2,3-d]pyrimidine-7-carboxamide]
23 | 20.4 | CC(C)(C)CNC(=O)C1CCc2c(sc3ncnc(Nc4ccc5[nH]ncc5c4)c23)C1 (racemic) [Example 113, (RS)-N-(2,2-dimethylpropyl)-4-(1H-indazol-5-ylamino)-5,6,7,8-tetrahydro[1]benzothieno[2,3-d]pyrimidine-7-carboxamide]
24 | 9 | O=C(Nc1ccccc1)C1CCc2c(sc3ncnc(Nc4ccc5[nH]ncc5c4)c23)C1 (centres unmarked) [Example 5, 4-(1H-Indazol-5-ylamino)-N-phenyl-5,6,7,8-tetrahydro[1]benzothieno[2,3-d]pyrimidine-7-carboxamide]
25 | 28.8 | O=C(C1CCc2c(sc3ncnc(Nc4ccc5[nH]ncc5c4)c23)C1)N1CCN(Cc2ccccn2)CC1 (racemic) [Example 154, (RS)-[4-(1H-indazol-5-ylamino)-5,6,7,8-tetrahydro[1]benzothieno[2,3-d]pyrimidin-7-yl][4-(pyridin-2-ylmethyl)piperazin-1-yl]methanone]
26 | 0.4 | CCOc1cc2[nH]ncc2cc1Nc1ncnc2sc3c(c12)CCC(C(=O)N1CCC(N(C)C)C1)C3 (racemic) [Example 258, [(3RS)-3-(Dimethylamino)pyrrolidin-1-yl]{(7RS)-4-[(6-ethoxy-1H-indazol-5-yl)amino]-5,6,7,8-tetrahydro[1]benzothieno[2,3-d]pyrimidin-7-yl}methanone]
27 | 0.5 | CC(C)Oc1cc2[nH]ncc2cc1Nc1ncnc2sc3c(c12)CCC(C(=O)N1CCC1)C3 (racemic) [Example 219, (RS)-Azetidin-1-yl(4-{[6-(propan-2-yloxy)-1H-indazol-5-yl]amino}-5,6,7,8-tetrahydro[1]benzothieno[2,3-d]pyrimidin-7-yl)methanone]
28 | 1.5 | CCOc1cc2[nH]ncc2cc1Nc1ncnc2sc3c(c12)CCC(C(=O)N1CCC1)C3 (racemic) [Example 223, (RS)-Azetidin-1-yl{4-[(6-ethoxy-1H-indazol-5-yl)amino]-5,6,7,8-tetrahydro[1]benzothieno[2,3-d]pyrimidin-7-yl}methanone]
29 | 16.3 | CN(C)CCCN(C)C(=O)C1CCc2c(sc3ncnc(Nc4ccc5[nH]ncc5c4)c23)C1 (racemic) [Example 96, (RS)-N-[3-(dimethylamino)propyl]-4-(1H-indazol-5-ylamino)-N-methyl-5,6,7,8-tetrahydro[1]benzothieno[2,3-d]pyrimidine-7-carboxamide]
